Earlier results in US20230381356A1 (priority 2021, published 2023).

How the values were obtained:
SARS-CoV-2 = conditions: GITC alone, even in high concentrations
Ebola Virus = conditions: saturated GITC solution ~3.5M alone
Pixuna virus = conditions: GITC alone at or near saturation (~3.5M)
[1] = system: Xenotropic murine leukemia virus
Virus = conditions: in <1 minute, final concentration of 1% (v/v)
[2] = system: Bovine Viral Diarrheal Virus

Compound | inactivation of SARS-CoV-2 (SARS-CoV-2) | inactivation of Ebola Virus (Ebola Virus) | inactivation of Pixuna virus (Pixuna virus) | inactivation of Pseudorabies Virus (Pseudorabies Virus) | inactivation of Xenotropic murine leukemia virus [1] | inactivation of HIV (HIV) | log reduction (Virus) [log] | inactivation of Bovine Viral Diarrheal Virus [2]
N#CS.N=C(N)N [GITC, Guanidine isothiocyanate] | 50-75% | does not inactivate | did not effectively inactivate |  |  |  |  | 
Triton X-100 |  |  |  | inactivate | inactivate | inactivate | 4 | inactivate
